As a reminder, the IC50 is the point on the concentration scale where inhibition reaches its midpoint. What is called melting point is the temperature, or range, at which the solid turns liquid.

Series [1] relates to MCF-7 breast cancer cell line. Also on record: method as in PMID 25096298. As to conditions: cited from earlier work.
Details of series [2]: method as in doi:10.5935/0103-5053.20160038. Particulars: due to optimal hydrophilicity/lipophilicity; cited from earlier work.
Series [3] deals with anti-apoptotic Bcl protein. Further details: method as in PMID 20405848. Particulars: cited from earlier work.
In series [4] the test system is MCF-7 (human mammary duct adenocarcinoma cell line). The series is described as follows: MTT cytotoxicity test, MCF-7. Format: cell-based. As to conditions: triplicate. The procedure:
(§1) Formazan crystals were added to 100 µL of DMSO. […] The experiments for all compounds were repeated three times.
(In general: Tetrazolium assays rely on reduction of a dye to a coloured formazan, in cell work by metabolically active cells.)

The nature of series [5]: MTT cytotoxicity test, normal Chang liver cells. As to conditions: human.
Excerpt: (§2) For the experiments, tumor cell cultures of M-HeLa clone 11 (epithelioid carcinoma of the cervix, subline HeLa., clone M-HeLa), HuTu 80, human duodenal adenocarcinoma, MCF7—human breast adenocarcinoma (pleural fluid) collected from Institute of Cytology, Russian Academy of Sciences (St. Petersburg, Russia); PC3—prostate adenocarcinoma cell line collected from ATCC (American Type Cell Collection, Manassas, VA, USA; CRL 1435; human liver cells (Chang liver) and the Research Institute of Virology of the Russian Academy of Medical Sciences (Moscow, Russia) were used for cytotoxicity analysis.
(§3) The cytotoxic effect on cells was determined using the colorimetric method of cell proliferation—the MTT test. NADP-H-dependent cellular oxidoreductase enzymes can, under certain conditions, reflect the number of viable cells. These enzymes are able to reduce the tetrazolium dye (MTT)—3-(4,5-dimethylthiazol-2-yl)-2,5-diphenyl-tetrazolium bromide to insoluble blue-violet formazan, which crystallizes inside the cell. The amount of formazan formed is proportional to the number of cells with active metabolism. Cells were seeded on a 96-well Nunc plate at a concentration of 5 × 10^3 cells per well in a volume of 100 μL of medium and cultured in a CO2 incubator at 37 °C until a monolayer was formed. […] After 48 h of incubation of the cells with the tested compounds, the nutrient medium was removed from the plates and 100 µL of the nutrient medium without serum with MTT at a concentration of 0.5 mg/mL was added and incubated for 4 h at 37 °C. Formazan crystals were added to 100 µL of DMSO. Optical density was recorded at 540 nm on an Invitrologic microplate reader (Novosibirsk, Russia). The experiments for all compounds were repeated three times.
(§4) Statistical analysis was performed using the Mann–Whitney test (p < 0.05). Tabular and graphical data contain the averages and standard error.
Series [6] relates to Chang liver (HeLa derivative) human liver cells. The series is described as follows: MTT cytotoxicity test, normal Chang liver cells. Particulars: 48 h, read-out: IC50 Chang Liver (HeLa), normal cell line.
Excerpt: as §2, §3, §4
The subject of series [7] is Chk1, Chk2, H2AX, MDM2, p53, p21, ATR in M-HeLa cells. The series is described as follows: Multiplex analysis of DNA damage/genotoxicity markers (MILLIPLEX MAP 7-plex, Luminex). Format: cell-based. Particulars: IC50/2 and IC50, 24 h. An excerpt:
Classical methods of assessing genotoxicity reveal mutations associated with increased or loss of function, but are not informative enough in studying the molecular mechanisms of DNA damage. The MILLIPLEX® MAP 7-plex DNA Damage/Genotoxicity Magnetic Bead kit allows to detect the expression and phosphorylation of a number of proteins involved in DNA damage, providing a faster and more accurate assessment of the state of the cell after exposure to genotoxic compounds. The 7-plex DNA Damage/Genotoxicity Magnetic Bead Kit is used to detect changes in phosphorylated Chk1 (Ser345), Chk2 (Thr68), H2AX (Ser139) and p53 (Ser15), as well as total protein levels of ATR, MDM2, and p21 in cellular lysates using the Luminex® system. […] The obtained results characterize the effect of the leading compound 7 on the DNA of M-HeLa cells at concentrations of IC50/2 and IC50. […] The fluorescence intensity of OTR markers also increases relative to the reference sample. […]
The studies were carried out according to the standard protocol. […] A total of 20 μg of total protein of each lysate diluted in MILLIPLEX® MAP Assay Buffer 2 was analyzed according to the analysis protocol (the lysate was incubated at 4 °C overnight). The mean fluorescence intensity (MFI) was detected using Luminex® system, MERCK, Kenilworth, NJ, USA.

Series [8] has as its system HuTu 80 human duodenal adenocarcinoma. The series is described as follows: MTT cytotoxicity test, HuTu 80. Particulars: triplicate. Format: cell-based. The procedure:
as §1

Series [9] relates to M-HeLa clone 11 (epithelioid carcinoma of the cervix, subline HeLa, clone M-HeLa). The series is described as follows: MTT cytotoxicity test, M-HeLa. Format: cell-based. As to conditions: mean ± SD, triplicate. The procedure: as §1
Series [10] concerns PC3 prostate adenocarcinoma cell line. The series is described as follows: MTT cytotoxicity test, PC3. It is filed as cell-based. As to conditions: mean ± SD, triplicate. The method, then: as §1
Setting [11] is: Homo sapiens, MCF7, 48 h, mean ± SD, read-out: IC50 MCF-7.
[12] abbreviates: Homo sapiens, MCF7, mean ± SD, lead compounds, read-out: IC50 MCF-7 (Table 2).
[13] abbreviates: Homo sapiens, HuTu80, 48 h, mean ± SD, read-out: IC50 HuTu 80.
Where [14] appears, read: Homo sapiens, HuTu80, mean ± SD, lead compounds, read-out: IC50 HuTu 80 (Table 2).
Where [15] appears, read: Homo sapiens, M-HeLa, 48 h, read-out: IC50 M-HeLa.
The mark [16] stands for this setting: Homo sapiens, M-HeLa, lead compounds, read-out: IC50 M-HeLa (Table 2).
The mark [17] stands for this setting: lead compounds, read-out: IC50 PC3 (Table 2).

Read-outs that look alike come from different tables or passages of the source.

As to `COc1ccc2c(c1)CCC1=C2N=c2s/c(=C\c3c[nH]c4ccc(Br)cc34)c(=O)n2C1c1ccc(Cl)cc1` (stereo not drawn) [Compound 1], the “cytotoxicity efficiency relative to doxorubicin” value in series [1] is given as 1.15 times. Also, the “absorption ability in the gastrointestinal tract” value in series [2] was “high absorption ability”.

As to `COc1ccc(C2C3=C(N=c4s/c(=C\c5c[nH]c6ccc(Br)cc56)c(=O)n42)c2ccc(OC)cc2CC3)cc1` (stereo not drawn) [Compound 3], the IC50 in series [3] was 3.4 µM.

For the compound `CCOC(=O)C1=C(C)N=c2s/c(=C\c3ccccc3O)c(=O)n2C1c1ccccc1` (stereo not drawn) [Compound 7, ethyl (Z)-2-(2-hydroxybenzylidene)-7-methyl-3-oxo-5-phenyl-2,3-dihydro-5H-thiazolo[3,2-a]pyrimidine-6-carboxylate], the IC50 in [4] (setting [11]) is 43.7 ± 3.5 µM; in [4] (setting [12]), 43.7 ± 3.5 µM; in series [6] (Homo sapiens, HeLa) it was 75 ± 5.7 µM; in [8] (setting [13]) it was 10.2 ± 0.8 µM; in series [8] (setting [14]), 10 ± 0.8 µM; in series [9] (setting [15]) it was 11.9 ± 0.9 µM. In addition, the half-maximal inhibitory concentration (IC50) in [9] (setting [16]) was found to be 11.9 ± 0.9 µM; in [10] (48 h, read-out: IC50 PC3), 77.6 ± 6.7 µM; in series [10] (setting [17]), 77.6 ± 6.7 µM. The same compound displayed a 50% inhibitory concentration (IC50) at 48 h in [5] of 75 ± 5.7 µM. Moreover, the “average fluorescence intensity of the markers Chk1, Chk2, H2AX, MDM2, p53, and p21” value in [7] (compared to untreated control) is listed as “significantly increase”. In [7] (relative to the reference sample), the “fluorescence intensity of OTR markers” value is given as “increases”.

On to `CCOC(=O)C1=C(C)N=c2s/c(=C\c3ccccc3O)c(=O)n2C1c1cccc([N+](=O)[O-])c1` (stereo not drawn) [Compound 10, Ethyl (Z)-2-(2-hydroxybenzylidene)-7-methyl-5-(3-nitrophenyl)-3-oxo-2,3-dihydro-5H-thiazolo[3,2-a]pyrimidine-6-carboxylate], for which the melting point was in the range of 187 to 189 °C. The IC50 in [4] (setting [11]) amounted to 56 ± 4.5 µM. In addition, in [4] (setting [12]), the IC50 was 56 ± 4.5 µM. In series [5], inhibition was half-maximal at 88 ± 7 µM (IC50 at 48 h). In addition, the 50% inhibitory concentration (IC50) in [6] (Homo sapiens, HeLa) was 88 ± 7 µM. Further, in series [8] (setting [13]), the concentration for half-maximal inhibition (IC50) turned out to be 60 ± 4.7 µM. Moreover, the IC50 in [8] (setting [14]) is 14.6 ± 0.3 µM. In addition, the IC50 in series [9] (setting [15]) was determined as 55 ± 4.4 µM. In series [9] (setting [16]), the concentration for half-maximal inhibition (IC50) amounted to 55 ± 4.4 µM. Also, the IC50 in series [10] (48 h, read-out: IC50 PC3) worked out at 56 ± 4.4 µM. For the same compound, the IC50 in series [10] (setting [17]) came to 56 ± 4.4 µM.

`COc1ccccc1C1C(C(=O)c2ccccc2)=C(C)N=c2s/c(=C\c3ccccc3O)c(=O)n21` (stereo not drawn) [Compound 11, (Z)-6-benzoyl-2-(2-hydroxybenzylidene)-5-(2-methoxyphenyl)-7-methyl-5H-thiazolo[3,2-a]pyrimidin-3(2H)-one] showed a melting point of 167 to 169 °C. The half-inhibitory concentration (IC50) in series [4] (setting [11]) turned out to be 81 ± 7.4 µM. Besides, the concentration for half-maximal inhibition (IC50) in series [6] (Homo sapiens, HeLa) worked out at 64 ± 5.1 µM. In addition, the 50% inhibitory concentration (IC50) in series [8] (setting [13]) is 39 ± 3.1 µM. Moreover, the half-maximal inhibitory concentration (IC50) in series [9] (setting [15]) stood at 56.4 ± 4.5 µM. Moreover, in series [10] (48 h, read-out: IC50 PC3), the IC50 came to 54 ± 4.3 µM.

Compound `CCOC(=O)C1=C(C)N=c2s/c(=C\c3ccccc3O)c(=O)n2C1c1ccc(Br)cc1` (stereo not drawn) [Compound 12, Ethyl (Z)-5-(4-bromophenyl)-2-(2-hydroxybenzylidene)-7-methyl-3-oxo-2,3-dihydro-5H-thiazolo[3,2-a]pyrimidine-6-carboxylate] displayed a melting point of 201 to 203 °C. Besides, the IC50 in series [4] (setting [11]) is 22.3 ± 1.4 µM. Besides, the IC50 in [4] (setting [12]) turned out to be 52.7 ± 4.2 µM. Besides, in series [5], half-maximal inhibition (IC50 at 48 h) was put at 78.2 ± 6.2 µM. Also, the IC50 in [6] (Homo sapiens, HeLa) turned out to be 78.2 ± 6.2 µM. The IC50 in series [8] (setting [13]) came to 23.7 ± 1.8 µM. Further, the half-maximal inhibitory concentration (IC50) in [8] (setting [14]) was 23.7 ± 1.8 µM. For the same compound, the half-inhibitory concentration (IC50) in [9] (setting [15]) is 18.8 ± 1.5 µM. Moreover, the half-inhibitory concentration (IC50) in [9] (setting [16]) stood at 18.8 ± 1.5 µM. In addition, in series [10] (48 h, read-out: IC50 PC3), the IC50 amounted to 28.1 ± 2.2 µM. In addition, in series [10] (setting [17]), the half-maximal inhibitory concentration (IC50) came out at 28.1 ± 2.2 µM.

As to `CCOC(=O)C1=C(C)N=c2s/c(=C\c3ccc(O)cc3)c(=O)n2C1c1ccccc1` (stereo not drawn) [Compound 13, ethyl (Z)-2-(4-hydroxybenzylidene)-7-methyl-3-oxo-5-phenyl-2,3-dihydro-5H-thiazolo[3,2-a]pyrimidine-6-carboxylate], the IC50 in [4] (setting [11]) is > 100 µM; in series [6] (Homo sapiens, HeLa), 86.1 ± 6.8 µM; in series [8] (setting [13]) it was 43.3 ± 3.5 µM; in [9] (setting [15]), 70 ± 5.5 µM; in series [10] (48 h, read-out: IC50 PC3), 54 ± 4.3 µM.

Take `CCOC(=O)C1=C(C)N=c2s/c(=C\c3ccc(O)cc3)c(=O)n2C1c1ccc(Br)cc1` (stereo not drawn) [Compound 14, Ethyl (Z)-5-(4-bromophenyl)-2-(4-hydroxybenzylidene)-7-methyl-3-oxo-2,3-dihydro-5H-thiazolo[3,2-a]pyrimidine-6-carboxylate]: the melting point lay in the range of 207 to 209 °C. For the same compound, the half-inhibitory concentration (IC50) in [4] (setting [11]) was determined as 53.3 ± 4.2 µM. Moreover, in [6] (Homo sapiens, HeLa), the 50% inhibitory concentration (IC50) is 53.2 ± 4.2 µM. Besides, in series [8] (setting [13]), the IC50 was 32.1 ± 2.5 µM. The IC50 in [9] (setting [15]) amounted to 31 ± 2.4 µM. The 50% inhibitory concentration (IC50) in series [10] (48 h, read-out: IC50 PC3) turned out to be 49.3 ± 3.9 µM.

As to `CCOC(=O)C1=C(C)N=c2s/c(=C\c3ccc(O)cc3)c(=O)n2C1c1cccc([N+](=O)[O-])c1` (stereo not drawn) [Compound 15, Ethyl (Z)-2-(4-hydroxybenzylidene)-7-methyl-5-(3-nitrophenyl)-3-oxo-2,3-dihydro-5H-thiazolo[3,2-a]pyrimidine-6-carboxylate], the melting point is 190 to 192 °C. The half-inhibitory concentration (IC50) in series [4] (setting [11]) was > 100 µM. The 50% inhibitory concentration (IC50) in series [6] (Homo sapiens, HeLa) was found to be 91.4 ± 7.2 µM. Further, the 50% inhibitory concentration (IC50) in series [8] (setting [13]) worked out at 74.5 ± 5.7 µM. The IC50 in series [9] (setting [15]) was > 100 µM. For the same compound, the IC50 in series [10] (48 h, read-out: IC50 PC3) came to 70 ± 5.5 µM.

In the case of `CNC(=O)c1cc(Oc2ccc(NC(=O)Nc3ccc(Cl)c(C(F)(F)F)c3)cc2)ccn1` [Sorafenib, reference compound], the IC50 in series [4] (setting [11]) was 27.5 ± 2.2 µM; in series [4] (setting [12]) it was 27.5 ± 2.2 µM; in series [6] (Homo sapiens, HeLa) it was 21.7 ± 1.7 µM; in [8] (setting [13]), 13 ± 1.2 µM; in series [8] (setting [14]) it was 13 ± 1.2 µM; in series [9] (setting [15]), 25 ± 1.8 µM. Moreover, the IC50 stood at 25 ± 1.8 µM in series [9] (setting [16]); 12.7 ± 1.1 µM in [10] (48 h, read-out: IC50 PC3); 27.5 ± 2.2 µM in series [10] (setting [17]). Further, the half-maximal inhibitory concentration (IC50) at 48 h in series [5] was found to be 21.7 ± 1.7 µM.

Regarding “ethyl (Z)-2-(2-hydroxybenzylidene)-5-(4-methoxyphenyl)-7-methyl-3-oxo-2,3-dihydro-5H-thiazolo[3,2-a]pyrimidine-6-carboxylate [Compound 8]”, the IC50 in series [4] (48 h, mean ± SD, read-out: IC50 MCF-7) came out at 93.3 ± 8.2 µM; in [6] (MTT, mean ± SD, triplicate), 56.4 ± 4.5 µM; in series [8] (48 h, mean ± SD, read-out: IC50 HuTu 80), 85.9 ± 8 µM; in [9] (48 h, read-out: IC50 M-HeLa), 90 ± 8.3 µM; in series [10] (48 h, read-out: IC50 PC3), 93.7 ± 8.5 µM.

(Values after publication PMC9693259, “Synthesis, Self-Assembly in Crystalline Phase and Anti-Tumor Activity of 2-(2-/4-Hydroxybenzylidene)thiazolo[3,2-a]pyrimidines” (Molecules, 2022).)
